Where two headings read alike, the source gives them in different places.
Tests used:
[1] = tested on: T cell proliferation in mouse spleen cell mixed lymphocyte cultures; test: Mixed Lymphocyte Reaction (MLR) assay; format: cell-based, mouse (Balb/c responder, C57B1/6 stimulator); settings: for inhibition at 3 µM / inhibition at 10 µM / inhibition at 30 µM / inhibition at 100 µM / inhibition at 300 µM: Mus musculus, Lymphocyte, read-out: % Change From Control, MLR
Source text: The pharmacologic assays performed to determine the immunomodulatory effects of the experimental compounds in vitro include the Mixed Lymphocyte Reaction (MLR) and the ConA blastogenesis assay. These assays were used to determine the inhibitory effects of the compounds of the invention on T lymphocyte activation and proliferation. Since inflammation at the cellular level is characterized by T lymphocyte recruitment, activation and proliferation, these assays are appropriate to use as screens for novel compounds having therapeutic potential in the treatment of disorders in which inflammatory mechanisms are involved.
The MLR is a classical assay used to measure T cell function by studying the proliferative response of T cells which are activated in vitro by genetically disparate stimulator cells. This is accomplished by co-culturing spleen cells from two different strains of mice. Splenic T cell proliferation occurs as a result of cellular activation signals generated by the ongoing cellular interactions.
Balb/c mice were euthanised by cervical dislocation and their spleens removed. Single cell suspensions of the spleens were prepared in culture medium (hepes buffered RPMI-1640 supplemented with 10% fetal calf serum, 2mM glutamine, 500 units penicillin/ streptomycin, and 4×10^-5 M 2-mercaptoethanol) using a Teflon pestle. The cells were centrifuged at 1500 rpm and the pellets resuspended in ACT (0.15M tris, 0.14M ammonium chloride, pH 7.2) in order to lyse the red blood cells. After a 5 minute incubation in a 37 C. waterbath, the cells were resuspended in culture medium and counted. C57B1/6 spleen cells which were used as stimulator cells, were also prepared by this method. The stimulator cells were treated with 100 ug/ml of mitomycin c for 1 hour at 37 C. (to inhibit stimulatory cell proliferation) and were then washed 5 times in culture medium. The proliferative responses were measured by culturing 2.5×10^5 responder cells with 5×10^5 stimulatory cells in 96 well microtiter plates in the presence or absence of various doses of test compounds or vehicle (DMSO). Syngeneic control cultures using mitomycin c treated Balb/c spleen cells as stimulator cells were also run. All cultures were run in triplicate.
Solutions of compounds of the present invention in DMSO were prepared at a stock concentration of 120 Mm. Dilutions were made in culture medium to the following concentrations: 3, 10, 30, 100, and 300 uM. The vehicle (DMSO) was used as a negative control.
After incubation of for 5 days at 37 C. with 5% CO2, the amount of cell proliferation was measured by adding 20 ul of MTT (3-[4,5-dimethylthiazol-2-yl]-2,5diphenyl-tetrazolium bromide) (10 mg/ml in phosphate buffered saline) to each well. Plates were incubated for 4 hours at 37 C., after which 180 ul of 10% sodium dodecyl sulphate in phosphate buffered saline was added. After an overnight incubation, the optical density (OD) of each well was read on a Molecular Devices microplate reader at 570-650 nm. The results were determined by calculating the difference between the means of the allogeneic cultures and the means of the syngenic cultures for each test article concentration. Differences of the test article groups were compared to the control group and the percent change from the control was determined.

[2] = tested on: T lymphocytes (normal mouse spleen cells) stimulated with ConA; test: Mouse Spleen Cell ConA Blastogenesis Assay; format: cell-based, mouse (C57Bl/6); settings: Mus musculus, T-lymphocyte; for inhibition at 1 µg/mL: compound 1 ug/ml; for inhibition at 2.5 µg/mL: compound 2.5 ug/ml; for inhibition at 10 µg/mL: compound 10 ug/ml; for inhibition at 25 µg/mL: compound 25 ug/ml; for inhibition at 0.1 µg/mL: compound 0.1 ug/ml
Source text: It is well known that several plant lectins, when cultured in vitro with lymphocytes, stimulate cellular activation and proliferation. Concanavolin, (ConA) selectively stimulates the blastogenic response of T lymphocytes.
Six to 8 week old male C57Bl/6 mice were purchased from Harlan Sprague Dawley (Indianapolis, Ind.).
Spleens were removed and were homogenized to obtain a single cell suspension. Erythrocytes were lysed by hypotonic shock. Upon determination of the viability and concentration of the lymphoid cells, they were adjusted to 4×10^6 cells/ml in culture medium (RPMI-1640) supplemented with 10% fetal bovine serum; 100 ug/ml streptomycin; 100 U/ml penicillin, 0.2M hepes buffer; 5×10^-5 M 2-mercaptoethanol and 2 mM glutamine). seeded into microtiter plate wells at 2×10^5 cells/0.050 ml/well. To these cultures were added various doses of experimental compounds and ConA at a final concentration of 4 or 1 ug/ml. Control cultures consisted of cells, ConA and culture medium containing the vehicle, DMSO only. […] For the testing of the methyl 1,3-O-isopropylidene-6-O-n-heptyl-α-D-fructofuranoside compound indomethacin and NDGA were used as controls. All cultures were run in triplicate.
Solutions of compounds of the invention in DMSO were prepared and dilutions were made in culture medium. Assay concentrations were either: 1, 2.5, 10, 25, 100, 300 and 750 ug/ml or 0.001, 0.01, 0.1, 1, 2.5, 10, 25 and 100 ug/ml.
Cultures were incubated for 3 days at 37° C. in a humidified atmosphere of 5% of CO2 in air. For the last 18 hours of culture, 1 uCi of ^3 H-thymidine was also incubated in each well. The cells were precipitated by a multi-channel harvester. The amount of ^3 H-thymidine incorporated by the cultures, as a measure of cell proliferation, was measured in a liquid scintillation counter. The amount of radioactive incorporation is proportional to the amount of cellular proliferation in individual wells. The students T test was used to determine the significance of the difference between experimental and control values.

[3] = ConA 1 ug/ml, read-out: % change from control, ConA blastogenic response
[4] = ConA 1 ug/ml, compound 100 ug/ml, read-out: % change from control, ConA blastogenic response
[5] = ConA 4 ug/ml, read-out: % change from control, ConA blastogenic response
[6] = ConA 4 ug/ml, compound 100 ug/ml, read-out: % change from control, ConA blastogenic response
[7] = ConA 1 ug/ml, 0.01 ug/ml, read-out: % Change from Control (Table II)
[8] = ConA 1 ug/ml, compound 0.01 ug/ml, read-out: % change from control, ConA blastogenic response
[9] = ConA 4 ug/ml, 0.01 ug/ml, read-out: % Change from Control (Table II)
[10] = ConA 4 ug/ml, compound 0.01 ug/ml, read-out: % change from control, ConA blastogenic response

SMILES | inhibition at 1 µg/mL [2, 3] [%] | inhibition at 2.5 µg/mL [2, 3] [%] | inhibition at 10 µg/mL [2, 3] [%] | inhibition at 25 µg/mL [2, 3] [%] | inhibition at 100 µg/mL [2, 4] [%] | inhibition at 1 µg/mL [2, 5] [%] | inhibition at 2.5 µg/mL [2, 5] [%] | inhibition at 10 µg/mL [2, 5] [%] | inhibition at 25 µg/mL [2, 5] [%] | inhibition at 100 µg/mL [2, 6] [%] | Mean O.D. Allogenic ([1]; 3 um) [O.D.] | Mean O.D. Syngeneic ([1]; 3 um) [O.D.] | Mean O.D. Allogenic ([1]; 10 um) [O.D.] | Mean O.D. Syngeneic ([1]; 10 um) [O.D.] | Mean O.D. Allogenic ([1]; 30 um) [O.D.] | Mean O.D. Syngeneic ([1]; 30 um) [O.D.] | Mean O.D. Allogenic ([1]; 100 um) [O.D.] | Mean O.D. Syngeneic ([1]; 100 um) [O.D.] | Mean O.D. Allogenic ([1]; 300 um) [O.D.] | Mean O.D. Syngeneic ([1]; 300 um) [O.D.] | other results
CCCCCCCCCCCCOC1C(C(O)CO)OC2OC(C)(C)OC21 [IIa, 1,2-O-Isopropylidene-3-O-n-dodecyl-α-D-glucofuranose] | 21 | 60 | 95 | 99 | 100 | 33 | 50 | 83 | 94 | 100 |  |  |  |  |  |  |  |  |  |  | % Change From Control, MLR ([1]; Table X, 3 ugm): -19%; % Change From Control, MLR ([1]; Table X, 10 ugm): -40%; Mean O.D. Allogenic ([1]; Table X, 10 ugm): 0.185 O.D.; Mean O.D. Syngeneic ([1]; Table X, 10 ugm): 0.135 O.D.; % Change From Control, MLR ([1]; Table X, 30 ugm): 23%; Mean O.D. Allogenic ([1]; Table X, 30 ugm): 0.158 O.D.; Mean O.D. Syngeneic ([1]; Table X, 30 ugm): 0.056 O.D.; % Change From Control, MLR ([1]; Table X, 100 ugm): -86%; % Change From Control, MLR ([1]; Table X, 300 ugm): -96%; strong non-dose dependent inhibition in MLR ([1]; several concentrations): greater than -50 % of control; inhibition at 100 µg/mL ([2]; 100 ug/ml, read-out: strong inhibition of ConA stimulated T lymphocyte proliferation): < 50%
CCCCCCCO[C@@H]1[C@@H](CO)O[C@@]2(OC)COC(C)(C)O[C@@H]12 [Ic, methyl 1,3-O-isopropylidene-4-O-heptyl-α-D-fructofuranoside] | 19 | 21 | 79 | 99 | 100 | 35 | 51 | 91 | 99 | 100 | 0.207 | 0.096 | 0.198 | 0.106 | 0.200 | 0.148 | 0.163 | 0.077 | 0.034 | 0.159 | inhibition at 3 µM ([1]; 3 um): -34%; inhibition at 10 µM ([1]; 10 um): -11%; inhibition at 30 µM ([1]; 30 um): 37%; inhibition at 100 µM ([1]; 100 um): -4%; inhibition at 300 µM ([1]; 300 um): 251%; inhibition at 0.01 µg/mL [2, 7]: -11%; inhibition at 0.01 µg/mL [2, 8]: -8%; inhibition at 0.1 µg/mL [2, 3]: 3%; inhibition at 0.01 µg/mL [2, 9]: 8%; inhibition at 0.01 µg/mL [2, 10]: -14%; inhibition at 0.1 µg/mL [2, 5]: 8%
CCCCC/C=C\COC[C@H]1O[C@@]2(OC)COC(C)(C)O[C@H]2[C@@H]1OC/C=C\CCCCC [If, methyl 1,3-O-isopropylidene-4,6-di-O-(cis,2-octenyl)-α-D-fructofuranoside] | 14 | 25 | 74 | 85 | 4 | 26 | 42 | 79 | 87 | 88 | 0.195 | 0.140 | 0.199 | 0.134 | 0.199 | 0.164 | 0.102 | 0.025 | 0.032 | 0.022 | inhibition at 3 µM ([1]; 3 um): 34%; inhibition at 10 µM ([1]; 10 um): 22%; inhibition at 30 µM ([1]; 30 um): 58%; inhibition at 100 µM ([1]; 100 um): 7%; inhibition at 300 µM ([1]; 300 um): 88%; inhibition at 0.01 µg/mL [2, 7]: 8%; inhibition at 0.01 µg/mL [2, 8]: -6%; inhibition at 0.1 µg/mL [2, 3]: 2%; inhibition at 0.01 µg/mL [2, 9]: 4%; inhibition at 0.01 µg/mL [2, 10]: 0%; inhibition at 0.1 µg/mL [2, 5]: 23%

Source: patent US5298494A, “Monosaccharides having anti-proliferation and anti-inflammatory activity, compositions and uses thereof” (Greenwich Pharmaceuticals Incorporated, priority 1993, dated 1994)
